Test results as given in US5089497A, “Substituted piperazines as central nervous system agents” (Warner-Lambert Company, priority 1990, dated 1992).

Legend:
[1] = system: Locomotor Activity in Mice; experiment: Inhibition of locomotor activity in mice; type: in vivo; settings: Mus musculus, IP
Source text: The above test methods are incorporated herein by reference.

[2] = system: Brain Dopamine Synthesis; experiment: Reversal of brain dopamine synthesis in rats (inhibition of dopamine synthesis); type: in vivo; settings: at 10 mg/kg, IP
Experimental: (§1) The compounds of Formula I are valuable dopaminergic agents. […] Thus, the compounds of Formula I were tested for their ability to inhibit locomotor activity in mice according to the assay described by J. R. McLean, et al, Pharmacology, Biochemistry and Behavior, Volume 8, pages 97-99 (1978); for their ability to inhibit [^3 H]spiroperidol binding in a receptor assay described by D. Grigoriadis and P. Seeman, Journal of Neurochemistry, Volume 44, pages 1925-1935 (1985); and for their ability to inhibit dopamine synthesis in rats according to the protocol described by J. R. Walters and R. H. Roth, Naunyn-Schmiedeberg's Archives of Pharmacology, Volume 296, pages 5-14 (1976). The above test methods are incorporated herein by reference. The data in the table show the dopaminergic activity of representative compounds of Formula I.

[3] = target: T1, [^3 H]Spiroperidol Binding (Homo sapiens, UniProt P14416); experiment: Inhibition of [^3 H]spiroperidol binding in a receptor assay
T1 construct: from tissue; host or cells: brain (striatum) membranes
T1 sequence (P14416 whole entry): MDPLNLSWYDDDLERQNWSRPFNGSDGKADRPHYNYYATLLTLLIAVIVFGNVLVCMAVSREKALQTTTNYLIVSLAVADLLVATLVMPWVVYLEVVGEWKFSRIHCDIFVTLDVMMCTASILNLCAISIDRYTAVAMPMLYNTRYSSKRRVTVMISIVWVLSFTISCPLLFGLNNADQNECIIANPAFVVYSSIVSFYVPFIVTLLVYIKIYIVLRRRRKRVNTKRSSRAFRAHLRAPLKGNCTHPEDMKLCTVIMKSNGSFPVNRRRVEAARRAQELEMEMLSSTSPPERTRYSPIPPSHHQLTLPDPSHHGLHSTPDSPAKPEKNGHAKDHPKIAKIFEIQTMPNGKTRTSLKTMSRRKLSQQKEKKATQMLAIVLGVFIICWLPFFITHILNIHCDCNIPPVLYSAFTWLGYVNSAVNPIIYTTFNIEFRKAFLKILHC
Experimental: as §1

SMILES	ED50 [1] [mg/kg]	% Reversal of Brain Dopamine Synthesis in Rats [2] [%]	IC50 [3] [µM]
O=C(CCCN1CCN(c2ccccn2)CC1)c1ccncc1 [Example 4, 1-(4-Pyridinyl)-4-[4-(2-pyridinyl)-1-piperazinyl]-1-butanone]	7.6	35	2.13
c1ccc(N2CCN(CCCCc3cccnc3)CC2)nc1 [Example 8, 1-(2-Pyridinyl)-4-[4-(3-pyridinyl)butyl]piperazine]	2.7	67	
c1cnc(N2CCN(CCCCc3cnc4ccccc4c3)CC2)nc1 [Example 12, 3-[4-[4-(2-Pyrimidinyl)-1-piperazinyl]butyl]quinoline]	1.2		
O=C(CCCN1CCN(c2ccccn2)CC1)c1cccnc1 [Example 2, 1-(3-Pyridinyl)-4-[4-(2-pyridinyl)-1-piperazinyl]-1-butanone]	6.3	43	2.87
O=C(CCCN1CCN(c2ccccn2)CC1)c1cnc2ccccc2c1 [Example 6, 1-(3-Quinolinyl)-4-[4-(2-pyridinyl)-1-(piperazinyl)]-1-butanone]	2.8		0.486
c1cnc(N2CCN(CCCCc3ccncc3)CC2)nc1 [Example 10, 2-[4-[4-(4-Pyridinyl)butyl]-1-piperazinyl]pyrimidine]	10.1	35	4.18
c1ccc(N2CCN(CCCCc3ccnc4ccccc34)CC2)nc1 [Example 13, 4-[4-[4-(2-Pyridinyl)-1-piperazinyl]butyl]quinoline]	3.2		0.279
O=C(CCCN1CCN(c2ccccn2)CC1)c1ccnc2ccccc12 [Example 7, 1-(4-Quinolinyl)-4-[4-(2-pyridinyl)-1-piperazinyl]-1-butanone]	13		
c1ccc(N2CCN(CCCc3cccnc3)CC2)nc1 [Example 1, 1-(2-Pyridinyl)-4-[3-(3-pyridinyl)propyl]piperazine]	3.1		
c1ccc(N2CCN(CCCCc3cnc4ccccc4c3)CC2)nc1 [Example 11]	2.2	100	0.155
c1ccc(N2CCN(CCCCc3ccncc3)CC2)nc1 [Example 9]	4	79	0.835
